Where two headings read alike, the source gives them in different places.
Tests used:
NCI-H520 human NSCLC = assay: NCI-H520 lung xenograft model; type: in vivo, mouse
Protocol: The effect of Compound 8 also was evaluated in the NCI-H520 human NSCLC nude mouse (female CrTac:NCr-Foxn1^nu) xenograft model. […] All treatments were statistically significant compared to vehicle (p<0.0001).

rats = settings: 50 rats treated for 3 weeks, 3×1 mg/kg body weight/week; cited from earlier work
patients = settings: cited from earlier work
[1] = tested on: A2780 human ovarian cancer; assay: A2780 ovarian xenograft model; type: in vivo, mouse
Protocol: The effect of Compound 8 on tumor growth inhibition (TGI) was evaluated in the A2780 human ovarian cancer nude mouse (female Crl:NU(NCr)-Foxn1^nu) xenograft model.

rat = assay: Single IV administration in the rat, kidney findings; type: in vivo; settings: single dose of cisplatin 7 mg/kg
Calu-6 human NSCLC = assay: Calu-6 lung xenograft model; type: in vivo, mouse
Protocol: The effect of Compound 8 was evaluated in the Calu-6 human NSCLC nude mouse (female Crl:NU(NCr)-Foxn1^nu) xenograft model.

[2] = tested on: BxPC-3 human pancreatic adenocarcinoma; assay: BxPC-3 pancreatic xenograft model; type: in vivo, mouse; settings: cisplatin 4 mg/kg
Protocol: The effect of Compound 8 on TGI was evaluated in the BxPC-3 human pancreatic adenocarcinoma nude mouse (female Crl:NU(NCr)-Foxn1^nu) xenograft model.

[3] = tested on: MIA Paca-2 human pancreatic adenocarcinoma; assay: MIA Paca-2 pancreatic xenograft model; type: in vivo, mouse

N.N.[Cl][Pt][Cl] [Cisplatin]
MTV (mean tumor volume) (NCI-H520 human NSCLC; Cisplatin 3 mg/kg (10 uM/kg) IV twice weekly, 5 doses, Day 31): 823 mm^3 | Mean maximal BW loss (NCI-H520 human NSCLC; cisplatin 3 mg/kg, on Day 4): 0.43% | Deaths secondary to malignancy (rats): 13 | Response rate in most advanced cancers (patients; first-line setting): ~50% | Hypersensitivity reactions, patients treated (patients; human, in vivo): up to 20% | Response rate in most advanced cancers (patients; second- or third-line setting): 15% | MTV (mean tumor volume) ([1]; Cisplatin 4 mg/kg (13.3 uM/kg) IV every 3 days, 6 doses): 1052 mm^3 | TGI (tumor growth inhibition) versus vehicle ([1]; Cisplatin 4 mg/kg IV every 3 days, 6 doses): 55% | Mean maximal BW loss ([1]; cisplatin 4 mg/kg, Day 5): 2.3% | Kidney findings (rat): high incidence of moderate acute tubular necrosis of the kidney | MTV (mean tumor volume) (Calu-6 human NSCLC; Cisplatin 3 mg/kg (10 uM/kg) IV twice weekly for 2 weeks, Day 33): 462 mm^3 | TGI (tumor growth inhibition) versus vehicle (Calu-6 human NSCLC; Cisplatin 3 mg/kg IV twice weekly for 2 weeks, Day 33): 74% | Median TTE (time to endpoint) (Calu-6 human NSCLC; Cisplatin 3 mg/kg IV twice weekly for 2 weeks, Day 54): 52.5 days | BW loss (Calu-6 human NSCLC; cisplatin 3 mg/kg): no BW loss | T-C (Calu-6 human NSCLC; cisplatin 3 mg/kg): 16.7 days | Treatment-related side effects (Calu-6 human NSCLC; cisplatin 3 mg/kg, one animal): severe petechiae on Day 4 | Treatment-related side effects [2]: No treatment-related side effects

O=C1[O][Pt]2([NH][C@@H]3CCCC[C@H]3[NH]2)[O]C1=O [Oxaliplatin]
MTV (mean tumor volume) ([3]; Oxaliplatin 7 mg/kg (17.9 uM/kg) IV q3, 7 doses, Day 18): 1251 mm^3 | TGI (tumor growth inhibition) versus vehicle ([3]; Oxaliplatin 7 mg/kg IV q3, 7 doses, Day 18): 61% | Treatment-related effects ([3]; oxaliplatin 7 mg/kg, all animals, Day 18): pale and dehydrated and having petechiae | Mean maximal BW loss ([3]; oxaliplatin 7 mg/kg, printed 'Day 5.3'): 8.1%

Reference: patent US20190350940A1, “PLATINUM COMPOUNDS, COMPOSITIONS, AND USES THEREOF” (priority 2015, published 2019)
